How the values were obtained:
ERα = target: T1, ERα (Homo sapiens, UniProt P03372); assay: ER degradation activity in MCF-7 cells (Western blot, grayscale intensity); format: cell-based; settings: 6 hours treatment, 1 nM to 100 nM, concentration required to degrade 50% of the target protein
T1 construct: host or cells: MCF-7
T1 sequence (P03372 1-595): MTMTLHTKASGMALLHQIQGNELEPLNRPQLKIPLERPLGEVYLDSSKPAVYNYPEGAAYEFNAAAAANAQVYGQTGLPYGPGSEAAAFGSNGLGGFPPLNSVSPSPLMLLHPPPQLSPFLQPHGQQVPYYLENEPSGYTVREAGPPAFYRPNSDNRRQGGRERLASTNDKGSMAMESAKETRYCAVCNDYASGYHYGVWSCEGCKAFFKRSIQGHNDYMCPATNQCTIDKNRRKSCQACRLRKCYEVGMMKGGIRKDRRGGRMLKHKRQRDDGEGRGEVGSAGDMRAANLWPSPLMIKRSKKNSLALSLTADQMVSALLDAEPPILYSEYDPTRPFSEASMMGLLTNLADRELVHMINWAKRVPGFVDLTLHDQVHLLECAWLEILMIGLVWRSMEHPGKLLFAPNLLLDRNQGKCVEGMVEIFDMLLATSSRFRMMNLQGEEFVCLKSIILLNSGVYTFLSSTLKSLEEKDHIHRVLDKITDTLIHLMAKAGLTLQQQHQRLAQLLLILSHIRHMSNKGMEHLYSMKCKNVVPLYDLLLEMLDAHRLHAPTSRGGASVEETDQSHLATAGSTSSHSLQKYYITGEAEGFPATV
Procedure, shortened: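 MCF-7 cells were treated 24 h after seeding with test compounds at 1 nM to 100 nM final (0.2% DMSO) for 6 h at 37 °C. ERα in lysates (30 µg protein) was detected by Western blot with ECL; degradation was quantified from band grayscale intensity and DC50 derived.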

MCF-7 cells = assay: Inhibition of MCF-7 cell proliferation (CellTiter-Glo cell viability); format: cell-based; settings: Homo sapiens, MCF7, 144 h, 6 days treatment, 1 pM to 10 µM
Description: ERα-positive human breast cancer cells MCF-7 (ATCC, HTB-22) were cultured with EMEM medium (ATCC, catalog number 30-2003) containing 10% fetal bovine serum (Thermo Fisher, catalog number 10099141) and 10 µg/mL bovine insulin in 25 cm^2 or 75 cm^2 plastic tissue culture flasks in a 37 °C incubator with 5% CO2. The cells were passaged 2 to 3 times per week.
MCF-7 cells were seeded in 96-well plate at 3×10^3 cells/well with 90 µL culture medium per well, and cultured in a 37 °C incubator with 95% air and 5% CO2. After 24 hours, the test compounds were added: the compounds were serially diluted 10-fold in DMSO starting from 10 mM (dissolved in DMSO) to prepare gradient stock solutions. A complete culture medium containing 1% DMSO was prepared for further dilution, temporarily named as the "dilution buffer." Working solutions were prepared by diluting each stock solution with 99 times the volume of dilution buffer, that is, by adding 1 µL of the 10 mM stock solution to 99 µL of the dilution buffer and mixing thoroughly. Finally, 10 µL of the working solution was added to the cell-seeded culture plate. The final concentration of DMSO in the cell culture medium was 0.2%, and the final concentration of the test compounds ranged from 1 pM to 10 µM. The cells were then incubated at 37 °C for 3 days. The culture medium was removed and replaced with 90µL per well of fresh medium. According to the above compound dilution method, the test compounds were added again. On the 6th day, the CellTiter Glo luminescent cell viability assay kit (Promag, item number G7573) was added for cell viability measurement.
Cell viability was measured using the CellTiter-Glo assay kit, and the half-maximal growth inhibitory concentration (GI50) of the compounds was calculated using the Prism software.
The GI50 values (i.e., the concentration of the test compounds required to inhibit 50% of the cell proliferation) were calculated and shown in Table 2. A corresponds to a GI50 value below 10 nM, B corresponds to a GI50 value greater than 10 nM and less than 100 nM, and C corresponds to GI50 values greater than 100 nM. Table 2. The GI50 values of exemplary compounds in MCF-7 cells

[1] = tested on: MCF-7/ERα Y537S xenografts; assay: Anti-tumor activity in MCF-7 xenografts expressing ERα Y537S mutant; format: in vivo, female Balb/c nude mice; settings: 1, 3 and 10 mpk, daily oral gavage, 17 days
Source text: (§1) MCF-7/ERα Y537S tumors that had been passaged in mice for more than three but less than ten generations were transplanted as approximately 3×3×3 mm tumor blocks into the subcutaneous right flank of female Balb/c nude mice. When the tumor volume in the tumor-bearing mice reached around 200 mm^3, the mice were randomly divided into four groups according to tumor volume and body weight: vehicle group, 1 mpk group, 3 mpk group, and 10 mpk group, 7 mice in each group. The day of grouping was designated as D0, and daily oral gavage administration began on this day and last for a total of 17 days. The 17th day after administration was designated as Day 17.
(§2) The tumor volume was measured twice weekly using a caliper, and the body weight of the mice was measured using an analytical balance. The length and width of the tumor were measured, and the formula for tumor volume calculation is: Tumor Volume (TV) = 0.5 × length × width× width. The T/C value was calculated based on the tumor volume, where T is the mean relative tumor volume (RTV) of the treated groups, and C is the mean RTV of the vehicle group. The RTV is the ratio of the tumor volume after administration to the tumor volume before administration. The tumor growth inhibition rate (TGITV) (%) = (1 - T/C) × 100%.

[2] = Body weight of MCF-7/ERα Y537S xenograft mice; format: in vivo, female Balb/c nude mice; settings: 1, 3 and 10 mpk, daily oral gavage, 17 days
Source text: as §1, §2

Row | SMILES | DC50 (ERα) | GI50 (MCF-7 cells) | tumor growth inhibition [1] | effect on body weight [2]
1 | CC1(C)CC(=C(c2ccc(N3CCC4(CC3)CC(N3CCN(c5ccc6c(c5)CN([C@@H]5CCC(=O)NC5=O)C6=O)CC3)C4)nc2)c2ccc3[nH]nc(F)c3c2)CC(C)(C)O1 [Compound 121] | < 10 nM | < 10 nM |  | 
2 | CC1(C)CC(=C(c2ccc(N3CCC(CN4CCN(c5ccc6c(c5)CN([C@@H]5CCC(=O)NC5=O)C6=O)CC4)CC3)nc2)c2ccc3[nH]nc(F)c3c2)CC(C)(C)O1 [Compound 119] | < 10 nM | < 10 nM |  | 
3 | CC1(C)CC(=C(c2ccc(N3CCC(CN4CCN(c5ccc6c(c5)CN([C@H]5CCC(=O)NC5=O)C6=O)CC4)CC3)nc2)c2ccc3[nH]nc(F)c3c2)CC(C)(C)O1 [Compound 110] | < 10 nM | < 10 nM | dose-dependent tumor growth inhibition | no effect
4 | CC1(C)CC(=C(c2ccc(N3CCC(CN4CCN(c5ccc6c(c5)C(=O)N(C5CCC(=O)NC5=O)C6=O)CC4)CC3)cc2)c2ccc3[nH]ncc3c2)CC(C)(C)O1 (stereo not drawn) [Compound 5] | < 10 nM | < 10 nM |  | 
5 | CC1(C)CC(=C(c2ccc(N3CCC4(CC3)CN(C3CCN(c5ccc6c(c5)CN(C5CCC(=O)NC5=O)C6=O)CC3)C4)nc2)c2ccc3[nH]nc(F)c3c2)CC(C)(C)O1 (stereo not drawn) [Compound 47] | < 10 nM | < 10 nM |  | 
6 | CC1(C)CC(=C(c2ccc(N3CCC(CN4CCN(c5ccc6c(c5)C(=O)N(C5CCC(=O)NC5=O)C6=O)CC4)CC3)cc2)c2ccc3[nH]nc(F)c3c2)CC(C)(C)O1 (stereo not drawn) [Compound 6] | < 10 nM | < 10 nM |  | 
7 | CC1(C)CC(=C(c2ccc(N3CCC(CN4CCN(c5ccc6c(c5)CN(C5CCC(=O)NC5=O)C6=O)CC4)CC3)nc2)c2ccc3[nH]nc(F)c3c2)CC(C)(C)O1 (racemic) [Compound 34] | < 10 nM | < 10 nM |  | 
8 | CC1(C)CC(=C(c2ccc(N3CCC(CN4CCN(c5ccc(NC6CCC(=O)NC6=O)c(F)c5)CC4)CC3)nc2)c2ccc3[nH]nc(F)c3c2)CC(C)(C)O1 (stereo not drawn) [Compound 89] | > 100 nM | > 100 nM |  | 
9 | CC1(C)CC(=C(c2ccc(N3CCC4(CC3)CC(N3CCN(c5ccc6c(c5)CN([C@H]5CCC(=O)NC5=O)C6=O)CC3)C4)nc2)c2ccc3[nH]nc(F)c3c2)CC(C)(C)O1 [Compound 120] | < 10 nM | < 10 nM | dose-dependent tumor growth inhibition | no effect
10 | CC1(C)CC(=C(c2ccc(N3CCC(CN4CCN(c5ccc(N6CCC(=O)NC6=O)cc5)CC4)CC3)nc2)c2ccc3[nH]nc(F)c3c2)CC(C)(C)O1 [Compound 77] | > 100 nM | > 100 nM |  | 
11 | CC1(C)CC(=C(c2ccc(N3CCC(CN4CCN(c5ccc(NC6CCC(=O)NC6=O)cc5)CC4)CC3)nc2)c2ccc3[nH]nc(F)c3c2)CC(C)(C)O1 (stereo not drawn) [Compound 88] | > 100 nM | > 100 nM |  | 
12 | CC1(C)CC(=C(c2ccc(N3CCN(C4CN(c5ccc6c(c5)C(=O)N(C5CCC(=O)NC5=O)C6=O)C4)CC3)cc2)c2ccc3[nH]nc(F)c3c2)CC(C)(C)O1 (stereo not drawn) [Compound 2] | < 10 nM | 10 to 100 nM |  | 
13 | CC1(C)CC(=C(c2ccc(N3CCC(F)(CNC4CCN(c5ccc6c(c5)CN(C5CCC(=O)NC5=O)C6=O)CC4)CC3)nc2)c2ccc3[nH]nc(F)c3c2)CC(C)(C)O1 (stereo not drawn) [Compound 48] | < 10 nM | < 10 nM |  | 
14 | CC1(C)CC(=C(c2ccc(N3CC4(CCC(N5CCN(c6ccc7c(c6)CN(C6CCC(=O)NC6=O)C7=O)CC5)CC4)C3)nc2)c2ccc3[nH]nc(F)c3c2)CC(C)(C)O1 (stereo not drawn) [Compound 109] | < 10 nM |  |  | 
15 | CC1(C)CC(=C(c2ccc(N3CCC(CN4CCN(c5ccc(F)c(NC6CCC(=O)NC6=O)c5)CC4)CC3)nc2)c2ccc3[nH]nc(F)c3c2)CC(C)(C)O1 (stereo not drawn) [Compound 83] | < 10 nM |  |  | 
16 | CC1(C)CC(=C(c2ccc(N3CCC4(CC3)CC(N3CCN(c5ccc6c(c5)CN(C5CCC(=O)NC5=O)C6=O)CC3)C4)nc2)c2ccc3[nH]nc(F)c3c2)CC(C)(C)O1 (racemic) [Compound 35] | < 10 nM | < 10 nM |  | 

The next lines start with results.

Row | DC50 (ERα) | GI50 (MCF-7 cells) | SMILES | tumor growth inhibition [1] | effect on body weight [2]
17 | 10 to 100 nM | < 10 nM | CC1(C)CC(=C(c2ccc(N3CCC(N4CCN(c5ccc6c(c5)CN(C5CCC(=O)NC5=O)C6=O)CC4)CC3)cc2)c2ccc3[nH]nc(F)c3c2)CC(C)(C)O1 (stereo not drawn) [Compound 37] |  | 
18 | < 10 nM | < 10 nM | CC1(C)CC(=C(c2ccc(N3CCC(N4CCN(c5ccc6c(c5)C(=O)N(C5CCC(=O)NC5=O)C6=O)CC4)CC3)cc2)c2ccc3[nH]nc(F)c3c2)CC(C)(C)O1 (stereo not drawn) [Compound 31] |  | 
19 | < 10 nM | < 10 nM | CC1(C)CC(=C(c2ccc(N3CC4(CCN(C5CCN(c6ccc7c(c6)CN(C6CCC(=O)NC6=O)C7=O)CC5)CC4)C3)nc2)c2ccc3[nH]nc(F)c3c2)CC(C)(C)O1 (stereo not drawn) [Compound 46] |  | 
20 | < 10 nM | < 10 nM | CC1(C)CC(=C(c2ccc(N3CCN(C4CCN(c5ccc6c(c5)C(=O)N(C5CCC(=O)NC5=O)C6=O)CC4)CC3)cc2)c2ccc3[nH]nc(F)c3c2)CC(C)(C)O1 (stereo not drawn) [Compound 22] |  | 
21 | < 10 nM | < 10 nM | CC1(C)CC(=C(c2ccc(N3CCC(CNC4CCN(c5ccc6c(c5)CN(C5CCC(=O)NC5=O)C6=O)CC4)CC3)nc2)c2ccc3[nH]nc(F)c3c2)CC(C)(C)O1 (stereo not drawn) [Compound 44] |  | 
22 | > 100 nM |  | CC1(C)CC(=C(c2ccc(N3CCC4(CC3)CC(N3CCC(c5ccc6c(c5)CN(C5CCC(=O)NC5=O)C6=O)CC3)C4)nc2)c2ccc3[nH]nc(F)c3c2)CC(C)(C)O1 (stereo not drawn) [Compound 63] |  | 
23 | 10 to 100 nM |  | CC1(C)CC(=C(c2ccc(N3CCN(C4CCN(c5ccc6c(c5)CN(C5CCC(=O)NC5=O)C6=O)CC4)CC3)cc2)c2ccc3[nH]ncc3c2)CC(C)(C)O1 (stereo not drawn) [Compound 66] |  | 
24 | > 100 nM |  | CC1(C)CC(=C(c2ccc(N3CC4(CC(N5CCN(c6ccc7c(c6)CN(C6CCC(=O)NC6=O)C7=O)CC5)C4)C3)nc2)c2ccc3[nH]nc(F)c3c2)CC(C)(C)O1 (stereo not drawn) [Compound 50] |  | 
25 | < 10 nM |  | CC1(C)CC(=C(c2ccc(N3CC4(CCN(C5CCN(c6ccc7c(c6)CN([C@@H]6CCC(=O)NC6=O)C7=O)CC5)CC4)C3)nc2)c2ccc3[nH]nc(F)c3c2)CC(C)(C)O1 [Compound 138] |  | 

Source: patent EP4722209A1 (Beijing Shenogen Pharma Group, priority 2023, dated 2024)
